Counter-ions that a name gives are not always drawn.
How the values were obtained:
Type in all cases: cell-based
[1] = test system: N9 mouse microglia cell line; experiment: LPS-induced TNF-α release in microglia cells (ELISA); conditions: for release of TNF-α (FIG. 1): 100 nM, 2, 4 and 6 hours pre-incubation; for activity at 5 µM: Mus musculus, Microglia, read-out: TNFα release (Fold-change relative to LPS); for attenuation of TNFα release at lower concentrations: at and below 100 nanomolar (data not shown)
Description: (§1) The “N9” murine microglia cell line was cultured in EMEM (Eagle Minimum Essential Media) supplemented with 10% (v/v) FBS, […] L-glutamine, 1% (v/v) NEAA and maintained at 37° C., 5% (v/v) CO2. Experiments were performed on 24-well plates. Compounds were incubated in cells for the indicated amount of time (2, 4 or 6 hours) before the addition of the indicated inflammatory stimuli (Lipopolysaccharide (LPS) or TNFα:IFNγ).
The experiment was conducted in vitro using N9 mouse microglia cell line. Phenolic metabolites or derived-thereof were pre-incubated for 6 hours at 5 micromolar with microglia cells in cell media. Afterwards cells were washed and incubated with lipopolysaccharides for 24 hours. At the end of this period cell media was collected and the presence of TNF-α analyzed using ELISA, thus showing the results as shown in Table 1.
In an embodiment compounds resorcinol-sulfate and phloroglucinol-sulfate were pre-incubated at 100 nanomolar for 2, 4, 6 hours with the cells in the cell media. Afterwards cells were washed and incubated with lipopolysaccharides for 24 hours. At the end of this period cell media was collected and the presence of TNF-α analyzed using ELISA, thus showing the results as substantially depicted in FIG. 1.

[2] = test system: N9 mouse microglia cell line; experiment: TNF-α and IFNγ-induced production of multiple cytokines in microglia cells (flow cytometry, LEGENDplex); conditions: 100 nM, 6 hours pre-incubation, then 24 hours TNF-α 10 nM plus IFNγ 1 nM
Description: as §1
The experiment was conducted in vitro using N9 mouse microglia cell line. Phenolic metabolites were pre-incubated for 6 hours in the regular cell media at the indicated concentration. Afterwards cells were washed and incubated with TNF-α 10 nM plus IFNγ 1 nM for 24 hours. At the end of this period cell media was collected and the presence of various cytokines analyzed using flow cytometry (LEGENDplex™ Mouse Macrophage/Microglia Panel), thus showing the results as substantially depicted in FIG. 3.

[3] = test system: N9 mouse microglia cell line; experiment: LPS-induced production of multiple cytokines in microglia cells (flow cytometry, LEGENDplex); conditions: 100 nM, 6 hours pre-incubation, then 24 hours lipopolysaccharides
Description: as §1
The experiment was conducted in vitro using N9 mouse microglia cell line. Phenolic metabolites were pre-incubated for 6 hours in the cell media at the indicated concentration. Afterwards cells were washed and incubated with lipopolysaccharides for 24 hours. At the end of this period cell media was collected and the presence of various cytokines analyzed using flow cytometry (LEGENDplex™ Mouse Macrophage/Microglia Panel), thus showing the results as substantially depicted in FIG. 2.

[4] = test system: LUHMES cells (human dopaminergic cell line); experiment: Cell viability and ATP levels after MPP+ oxidative insult; conditions: 24 hours pre-treatment at 5 μM, then 24 hours MPP+; for ATP levels (FIG. 5B): luciferase; for cell viability (metabolic capacity) (FIG. 5A): resazurin
Description: The LUHMES cells (human dopaminergic cell line) were cultured in advanced DMEM-F12 ([…]) at 37° C. with 5% (v/v) CO2. Experiments were performed in 24 well plates. Compounds were incubated for 24 hours before addition of Parkinson inducing toxin MPP+ was added to cells.
The experiment was conducted in vitro using “LUHMES”, human dopaminergic cell line at 37° C. with 5% CO2. Phenolic metabolites were incubated for 24 hours at 5 μM. After this period cells were washed and incubated (or not) with MPP+ ([…]) for 24 hours in order to produce the oxidative insult, that mimics the dopaminergic lesions found in several neurodegenerative diseases, namely in Parkinson's Disease brain. Afterwards cell medium was replaced with new medium including the cell metabolic dyes: resazurin for 2 hours or luciferase for 30 min. Colour development was measured by fluorescence and luminescence respectively, in a Synergy (Biotek) plate reader, thus showing the results as substantially depicted in FIG. 5.

[5] = 5 micromolar, 6 hours pre-incubation, then 24 hours lipopolysaccharides, ELISA
[6] = then 24 hours lipopolysaccharides

For `COc1c(O)cc(C(=O)O)cc1OS(=O)(=O)O` [4-O-methyl gallic acid-3-sulfate], the “TNFα release (Fold-change relative to LPS)” value [1, 5] was 0.50 ± 0.07 Fold-change relative to LPS.
For `O=S(=O)(O)Oc1cccc(O)c1` [Resorcinol-sulfate, 3-hydroxyphenyl hydrogen sulfate], the “multiple cytokines (TNF-α, CCL22, IL-10, CCL17, IL-1β, CXCL1, G-CSF, IL-6, IL-18, TGFβ1, IL23, IL-12p40, IL-12p70) (FIG. 3)” value [2] was “reduction in multiple cytokines”, the “multiple cytokines (G-CSF, TNF-α, IL-6, IL-10, IL-1β, CCL17, IL-12p40, TGFβ1, CCL22, IL18, CXCL1) (FIG. 2)” value [3] was “reduction in multiple cytokines” and the “ATP levels (FIG. 5B)” value [4] was “protective effects”. For the same molecule, the “cell viability (metabolic capacity) (FIG. 5A)” value [4] was “protective effects”, the “release of TNF-α (FIG. 1)” value [1, 6] was “reduction in release of TNF-α” and the activity at 5 µM [1, 5] was 58 ± 13%. For the same molecule, the “attenuation of TNFα release at lower concentrations” value [1] was “capability to attenuate TNFα release at lower concentrations”.
With `Cc1ccc(OS(=O)(=O)O)c(O)c1O` [2,3-dihydroxy-4-methylphenyl hydrogen sulfate] the activity at 5 µM [1, 5] was 45 ± 4%.
In the case of `O=S(=O)(O)Oc1cc(O)cc(O)c1` [Phloroglucinol-sulfate, 3,5-dihydroxyphenyl hydrogen sulfate], the “multiple cytokines (TNF-α, CCL22, IL-10, CCL17, IL-1β, CXCL1, G-CSF, IL-6, IL-18, TGFβ1, IL23, IL-12p40, IL-12p70) (FIG. 3)” value [2] is reported as “reduction in multiple cytokines”, the “multiple cytokines (G-CSF, TNF-α, IL-6, IL-10, IL-1β, CCL17, IL-12p40, TGFβ1, CCL22, IL18, CXCL1) (FIG. 2)” value [3] is reported as “reduction in multiple cytokines” and the “ATP levels (FIG. 5B)” value [4] is reported as “protective effects”. The “cell viability (metabolic capacity) (FIG. 5A)” value [4] was “protective effects”, the “release of TNF-α (FIG. 1)” value [1, 6] was “reduction in release of TNF-α” and the activity at 5 µM [1, 5] was 57 ± 6%. The “attenuation of TNFα release at lower concentrations” value [1] was “capability to attenuate TNFα release at lower concentrations”.
`COc1cc(O)cc(OS(=O)(=O)O)c1` [3-hydroxy-5-methoxyphenyl hydrogen sulfate] gave an activity at 5 µM [1, 5] of 57 ± 6%.
For `COc1cc(C(=O)O)ccc1OS(=O)(=O)O` [3-methoxy-4-(sulfooxy)benzoic acid], the activity at 5 µM [1, 5] was 56 ± 16%.
`COc1cccc(OS(=O)(=O)O)c1O` [2-hydroxy-3-methoxyphenyl hydrogen sulfate] gave an activity at 5 µM [1, 5] of 65 ± 11%.
Molecule `COc1c(O)cccc1OS(=O)(=O)O` [3-hydroxy-2-methoxyphenyl hydrogen sulfate] has an activity at 5 µM [1, 5] of 65 ± 8%.
In the case of `O=S(=O)(O)Oc1ccc(CO)c(O)c1O` [2,3-dihydroxy-4-(hydroxymethyl)phenyl hydrogen sulfate], the activity at 5 µM [1, 5] is reported as 48 ± 7%.
